Source: US7732604B2, “Triazolopyrazine derivatives” (Pfizer Inc., priority 2006, dated 2010)
Counter-ions that a name gives are not always drawn.

Biological target: T1, HGFR (Homo sapiens, UniProt P08581)
T1 construct: purchased Upstate 14-526
Assay: HGFR continuous-coupled spectrophotometric assay (tyrosine kinase activity on Met-2 substrate peptide)
Assay type: biochemical
Details: HGFR 50 nM, Met-2 peptide 0.5 mM, ATP 300 μM, 37° C., absorbance 340 nm; read-out: Ki

T1 sequence (P08581 974-1390 limits assumed): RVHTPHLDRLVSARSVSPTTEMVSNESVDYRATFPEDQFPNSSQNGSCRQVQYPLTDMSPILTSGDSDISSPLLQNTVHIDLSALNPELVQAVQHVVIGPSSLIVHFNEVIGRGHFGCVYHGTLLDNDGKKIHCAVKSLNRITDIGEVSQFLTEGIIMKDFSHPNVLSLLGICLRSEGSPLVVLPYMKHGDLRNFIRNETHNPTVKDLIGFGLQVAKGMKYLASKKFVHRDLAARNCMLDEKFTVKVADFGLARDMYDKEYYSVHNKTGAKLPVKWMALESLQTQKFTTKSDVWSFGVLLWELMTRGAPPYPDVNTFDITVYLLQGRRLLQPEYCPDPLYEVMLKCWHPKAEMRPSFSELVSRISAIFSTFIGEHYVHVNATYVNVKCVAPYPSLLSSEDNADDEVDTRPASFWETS

Structure (SMILES)	Ki [µM]
CC(c1ccc2c(c1)OCCO2)n1nnc2ncc(-c3cnn(C)c3)nc21 (stereo in doubt) [Example 60, 1-[(S)-1-(2,3-Dihydro-benzo[1,4]dioxin-6-yl)-ethyl]-6-(1-methyl-1H-pyrazol-4-yl)-1H-[1,2,3]triazolo[4,5-b]pyrazine]	0.03
CC(CO)Nc1cnc2nnn(Cc3ccc4ncccc4c3)c2n1 (stereo in doubt) [Example 120, (2R)-2-{[1-(quino-lin-6-yl-methyl)-1H-[1,2,3]tri-azolo[4,5-b]pyra-zin-6-yl]ami-no}propan-1-ol]	0.041
N#CC1CCN(C2CCN(c3cnc4nnn(Cc5ccc6ncccc6c5)c4n3)C2)CC1 (stereo in doubt) [Example 148, 1-{(3R)-1-[1-(quino-lin-6-yl-methyl)-1H-[1,2,3]tri-azolo[4,5-b]pyra-zin-6-yl]pyrro-lidin-3-yl}pipe-ridine-4-carbo-nitrile]	0.03
OC1CCN(C2CCN(c3cnc4nnn(Cc5ccc6ncccc6c5)c4n3)C2)CC1 (stereo in doubt) [Example 170, 1-[(3R)-1-[1-(quino-lin-6-yl-methyl)-1H-[1,2,3]tri-azolo[4,5-b]pyra-zin-6-yl]pyrro-lidin-3-yl}pipe-ridin-4-ol]	0.021
CC(c1ccc2ncccc2c1)n1nnc2ncc(Br)nc21 (stereo in doubt) [Example 212, 6-[(S)-1-(6-Bromo-[1,2,3]triazolo [4,5-b]pyrazin-1-yl)-ethyl]-quinoline]	0.042
c1cnc2ccc(Cn3nnc4ncc(-c5cnn(C6CNC6)c5)nc43)cc2c1 [Example 1, 6-((6-(1-(azetidin-3-yl)-1H-pyrazol-4-yl)-1H-[1,2,3]-triazolo[4,5-b]pyrazin-1-yl)methyl)-quinoline]	0.008
NCCn1cc(-c2cnc3nnn(Cc4ccc5ncccc5c4)c3n2)cn1 [Example 2, 2-(4-(3-(quinolin-6-ylmethyl)-3H-[1,2,3]triazolo[4,5-b]pyrazin-5-yl)-1H-pyrazol-1-yl)ethanamine]	0.011
c1cnc2ccc(Cn3nnc4ncc(-c5cnn(CC6CCNCC6)c5)nc43)cc2c1 [Example 4]	0.069
COCCn1cc(-c2cnc3nnn(Cc4ccc5ncccc5c4)c3n2)cn1 [Example 6, 6-((6-(1-(2-methoxyethyl)-1H-pyrazol-4-yl)-1H-[1,2,3]triazolo[4,5-b]pyrazin-1-yl)methyl)-quinoline]	0.011
O=C(NC1CCNCC1)c1ccc(-c2cnc3nnn(Cc4ccc5ncccc5c4)c3n2)cc1 [Example 10, N-(piperidin-4-yl)-4-(3-(quinolin-6-ylmethyl)-3H-[1,2,3]triazolo[4,5-b]pyrazin-5-yl)benzamide]	0.004
NCCNC(=O)c1ccc(-c2cnc3nnn(Cc4ccc5ncccc5c4)c3n2)cc1 [Example 11, N-(2-aminoethyl)-4-(3-(quinolin-6-ylmethyl)-3H-[1,2,3]triazolo[4,5-b]pyrazin-5-yl)benzamide]	0.004
CN(C)CCN(C)C(=O)c1ccc(-c2cnc3nnn(Cc4ccc5ncccc5c4)c3n2)cc1 [Example 12, N-(2-(dimethylamino)ethyl)-N-methyl-4-(3-(quinolin-6-ylmethyl)-3H-[1,2,3]triazolo[4,5-b]pyrazin-5-yl)benzamide]	0.038
CN(C)CCNC(=O)c1ccc(-c2cnc3nnn(Cc4ccc5ncccc5c4)c3n2)cc1 [Example 13, N-(2-(dimethylamino)ethyl)-4-(3-(quinolin-6-ylmethyl)-3H-[1,2,3]triazolo[4,5-b]pyrazin-5-yl)benzamide]	0.003
CCOC(=O)c1cnn(-c2cnc3nnn(Cc4ccc5ncccc5c4)c3n2)c1 [Example 14, ethyl 1-(3-(quinolin-6-ylmethyl)-3H-[1,2,3]triazolo[4,5-b]pyrazin-5-yl)-1H-pyrazole-4-carboxylate]	0.04
Cc1cn(-c2cnc3nnn(Cc4ccc5ncccc5c4)c3n2)cn1 [Example 16, 6-((6-(4-methyl-1H-imidazol-1-yl)-1H-[1,2,3]triazolo[4,5-b]pyrazin-1-yl)methyl)-quinoline]	0.003
O=C(c1ccc(-c2cnc3nnn(Cc4ccc5ncccc5c4)c3n2)cc1)N1CCOCC1 [Example 17, morpholino(4-(3-(quinolin-6-ylmethyl)-3H-[1,2,3]triazolo[4,5-b]pyrazin-5-yl)phenyl)-methanone]	0.046
CNC(=O)c1cccc(-c2cnc3nnn(Cc4ccc5ncccc5c4)c3n2)c1 [Example 18, N-methyl-3-(3-(quinolin-6-ylmethyl)-3H-[1,2,3]triazolo[4,5-b]pyrazin-5-yl)benzamide]	0.005
CNC(=O)c1ccc(-c2cnc3nnn(Cc4ccc5ncccc5c4)c3n2)cc1 [Example 19, N-methyl-4-(3-(quinolin-6-ylmethyl)-3H-[1,2,3]triazolo[4,5-b]pyrazin-5-yl)benzamide]	0.003
COc1cccc(-c2cnc3nnn(Cc4ccc5ncccc5c4)c3n2)c1 [Example 20, 6-((6-(3-methoxyphenyl)-1H-[1,2,3]triazolo[4,5-b]pyrazin-1-yl)methyl)-quinoline]	0.003
COc1ccc(-c2cnc3nnn(Cc4ccc5ncccc5c4)c3n2)cc1 [Example 21, 6-((6-(4-methoxyphenyl)-1H-[1,2,3]triazolo[4,5-b]pyrazin-1-yl)methyl)-quinoline]	0.004

Structure (SMILES)	Ki [µM]
c1cnc2ccc(Cn3nnc4ncc(-n5cccn5)nc43)cc2c1 [Example 22, 6-((6-(1H-pyrazol-1-yl)-1H-[1,2,3]triazolo[4,5-b]pyrazin-1-yl)methyl)-quinoline]	0.012
CN(C)C1CCN(c2cnc3nnn(Cc4ccc5ncccc5c4)c3n2)CC1 [Example 27]	0.045
OC1CCN(c2cnc3nnn(Cc4ccc5ncccc5c4)c3n2)CC1 [Example 28, 1-(3-(quinolin-6-ylmethyl)-3H-[1,2,3]triazolo[4,5-b]pyrazin-5-yl)piperidin-4-ol]	0.015
CN(C)[C@H]1CCN(c2cnc3nnn(Cc4ccc5ncccc5c4)c3n2)C1 [Example 29, (S)-N,N-dimethyl-1-(3-(quinolin-6-ylmethyl)-3H-[1,2,3]triazolo[4,5-b]pyrazin-5-yl)pyrrolidin-3-amine]	0.024
CN(C)[C@@H]1CCN(c2cnc3nnn(Cc4ccc5ncccc5c4)c3n2)C1 [Example 30, (R)-N,N-dimethyl-1-(3-(quinolin-6-ylmethyl)-3H-[1,2,3]triazolo[4,5-b]pyrazin-5-yl)pyrrolidin-3-amine]	0.008
N[C@@H]1CCCN(c2cnc3nnn(Cc4ccc5ncccc5c4)c3n2)C1 [Example 31, (R)-1-(3-(quinolin-6-ylmethyl)-3H-[1,2,3]triazolo[4,5-b]pyrazin-5-yl)piperidin-3-amine dihydrochloride]	0.059
N[C@H]1CCCN(c2cnc3nnn(Cc4ccc5ncccc5c4)c3n2)C1 [Example 32, (S)-1-(3-(quinolin-6-ylmethyl)-3H-[1,2,3]triazolo[4,5-b]pyrazin-5-yl)piperidin-3-amine dihydrochloride]	0.069
c1cnc2ccc(Cn3nnc4ncc(N5CCNCC5)nc43)cc2c1 [Example 33, 6-((6-(piperazin-1-yl)-1H-[1,2,3]triazolo[4,5-b]pyrazin-1-yl)methyl)quinoline]	0.01
CC(C)(C)OC(=O)NC1CCN(c2cnc3nnn(Cc4ccc5ncccc5c4)c3n2)CC1 [Example 34, tert-butyl 1-(3-(quinolin-6-ylmethyl)-3H-[1,2,3]triazolo[4,5-b]pyrazin-5-yl)piperidin-4-ylcarbamate]	0.033
OCc1ccc(-c2cnc3nnn(Cc4ccc5ncccc5c4)c3n2)cc1 [Example 36, (4-(3-(quinolin-6-ylmethyl)-3H-[1,2,3]triazolo[4,5-b]pyrazin-5-yl)phenyl)methanol]	0.002
OCc1cccc(-c2cnc3nnn(Cc4ccc5ncccc5c4)c3n2)c1 [Example 37, (3-(3-(quinolin-6-ylmethyl)-3H-[1,2,3]triazolo[4,5-b]pyrazin-5-yl)phenyl)methanol]	0.004
NCc1ccc(-c2cnc3nnn(Cc4ccc5ncccc5c4)c3n2)cc1 [Example 38, (4-(3-(quinolin-6-ylmethyl)-3H-[1,2,3]triazolo[4,5-b]pyrazin-5-yl)phenyl)methanamine]	0.003
O=C(O)c1ccc(-c2cnc3nnn(Cc4ccc5ncccc5c4)c3n2)cc1Cl [Example 39, 2-chloro-4-(3-(quinolin-6-ylmethyl)-3H-[1,2,3]triazolo[4,5-b]pyrazin-5-yl)benzoic acid]	0.021
O=C(O)c1cc(F)cc(-c2cnc3nnn(Cc4ccc5ncccc5c4)c3n2)c1 [Example 40, 3-fluoro-5-(3-(quinolin-6-ylmethyl)-3H-[1,2,3]triazolo[4,5-b]pyrazin-5-yl)benzoic acid]	0.012
Brc1cnc2nnn(Cc3ccc4c(c3)CCO4)c2n1 [Example 41, 6-Bromo-1-(2,3-dihydro-benzofuran-5-ylmethyl)-1H-[1,2,3]triazolo[4,5-b]pyrazine]	0.036
N[C@@H]1CCN(c2cnc3nnn(Cc4ccc5c(c4)CCO5)c3n2)C1 [Example 42, (R)-1-[3-(2,3-Dihydro-benzofuran-5-ylmethyl)-3H-[1,2,3]triazolo[4,5-b]pyrazin-5-yl]-pyrrolidin-3-ylamine]	0.08
CN(C)[C@@H]1CCN(c2cnc3nnn(Cc4ccc5c(c4)CCO5)c3n2)C1 [Example 43, {(R)-1-[3-(2,3-Dihydro-benzofuran-5-ylmethyl)-3H-[1,2,3]triazolo[4,5-b]pyrazin-5-yl]-pyrrolidin-3-yl}-dimethyl-amine]	0.045
CCc1cnc2nnn(Cc3ccc4ncccc4c3)c2n1 [Example 52, 6-(6-Ethyl-[1,2,3]triazolo[4,5-b]pyrazin-1-ylmethyl)-quinoline]	0.088
CC(c1ccc2c(c1)OCCO2)n1nnc2ncc(Br)nc21 (stereo not shown) [Example 54, 6-Bromo-1-[1-(2,3-dihydro-benzo[1,4]dioxin-6-yl)-ethyl]-1H-[1,2,3]tiazolo[4,5-b]pyrazine]	0.042
CC(c1ccc2c(c1)OCCO2)n1nnc2ncc(-c3cnn(C)c3)nc21 (stereo not shown) [Example 56, 1-[1-(2,3-Dihydro-benzo[1,4]dioxin-6-yl)-ethyl]-6-(1-methyl-1H-pyrazol-4-yl)-1H-[1,2,3]triazolo[4,5-b]pyrazine]	0.037
